For this assay, the target named is T1, TrkA kinase (Homo sapiens, UniProt P04629).
T1 construct: purchased Upstate, USA
Nature of the assay: In vitro TrkA inhibitory activity using TR-FRET assay. Format: biochemical. As for the experimental part:
Compounds were screened in the TR-FRET assay with TrkA kinase. 5 ng of TrkA [Upstate, USA] kinase was used for assay. The compound was incubated with the kinase for 30 minutes at 20-35° C. After the incubation, substrate mix [40 nM Ultra light poly GT (Perkin Elmer, USA) and 500 μM ATP] was added. The above reaction was stopped by the addition of 40 mM EDTA after 30 minutes. The Eu-labelled antiphospho-tyrosine antibody [Perkin Elmer, USA] was added at 0.5 nM and the fluorescence emission at 615 nm/665 nm [excitation at 340 nm] was measured. The compounds were initially screened at 100 nM, 1 μM and 10 μM concentrations. The potent compounds with >25% inhibition at 1 μM of TrkA were taken for the full dose response studies. The final DMSO concentration in the assay was […]. For IC50 determination, ⅓^rd serial dilution was made from the 20 mM DMSO stock solution. 2 μl of these were transferred to the test wells containing 20 μl reaction mixture [Total reaction volume 22 μl]. The fluorescence was measured in Perkin Elmer Wallac 1420 Multilabel Counter Victor 3. The IC50 was determined by fitting the dose response data to a sigmoidal curve fitting equation using GraphPad Prism software version 5.

Setting [1] is: 5 ng TrkA, 500 μM ATP, values given as bins, read-out: TrkA inhibitory activity in-vitro IC50.
[2] abbreviates: 5 ng TrkA, 500 μM ATP, values given as bins, read-out: TrkA inhibition in-vitro IC50.

Read-outs that look alike come from different tables or passages of the source.

T1 sequence (P04629 33-796): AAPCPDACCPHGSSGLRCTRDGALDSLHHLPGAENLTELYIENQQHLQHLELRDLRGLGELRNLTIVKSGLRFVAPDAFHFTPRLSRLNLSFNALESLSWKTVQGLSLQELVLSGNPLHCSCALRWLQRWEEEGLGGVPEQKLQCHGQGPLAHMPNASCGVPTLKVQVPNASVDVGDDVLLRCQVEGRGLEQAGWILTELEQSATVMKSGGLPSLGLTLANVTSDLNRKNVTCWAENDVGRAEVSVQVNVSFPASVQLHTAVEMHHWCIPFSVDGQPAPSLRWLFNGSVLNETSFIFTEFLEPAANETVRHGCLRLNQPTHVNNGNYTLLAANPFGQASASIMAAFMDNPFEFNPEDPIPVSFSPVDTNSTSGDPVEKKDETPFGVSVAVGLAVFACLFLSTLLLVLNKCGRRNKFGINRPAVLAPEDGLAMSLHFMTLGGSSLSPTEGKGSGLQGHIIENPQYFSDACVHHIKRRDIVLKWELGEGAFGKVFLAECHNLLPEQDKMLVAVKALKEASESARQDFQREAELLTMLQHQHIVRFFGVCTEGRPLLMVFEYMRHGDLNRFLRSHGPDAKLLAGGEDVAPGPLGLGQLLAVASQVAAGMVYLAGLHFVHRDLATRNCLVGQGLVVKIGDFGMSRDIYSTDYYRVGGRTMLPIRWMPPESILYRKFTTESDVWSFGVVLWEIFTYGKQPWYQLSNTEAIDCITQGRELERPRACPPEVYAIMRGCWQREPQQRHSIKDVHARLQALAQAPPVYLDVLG

Regarding `CN(C)C(=O)Nc1cnc2ccc(N3CCCC3c3cc(F)ccc3F)cn12` (stereo not shown) [Example 11, 3-(6-(2-(2,5-difluorophenyl)pyrrolidin-1-yl)imidazo[1,2-a]pyridin-3-yl)-1,1-dimethylurea], the IC50 under setting [1] is 1000 to 10000 nM. Consider `O=C(NC12CC3CC(CC(O)(C3)C1)C2)c1cnc2ccc(N3CCC[C@@H]3c3cc(F)ccc3F)cn12` [Example 23, 6-((R)-2-(2,5-difluorophenyl)pyrrolidin-1-yl)-N-((1r,3S,5R,7S)-3-hydroxyadamantan-1-yl)imidazo[1,2-a]pyridine-3-carboxamide], for which the IC50 (bin with mixed units (lower bound nM, upper bound μM), read-out: TrkA inhibitory activity in-vitro IC50) was 500 to 1000 nM.

For `COCCN(C)S(=O)(=O)NC(=O)c1cnc2ccc(N3CCC[C@@H]3c3cc(F)ccc3F)cn12` [Example 39, (R)-6-(2-(2,5-difluorophenyl)pyrrolidin-1-yl)-N-(N-(2-methoxyethyl)-N-methylsulfamoyl)imidazo[1,2-a]pyridine-3-carboxamide], the IC50 under setting [2] is not above 50 nM. Take `CC(C)(C)S(=O)(=O)NC(=O)c1cnc2ccc(N3CCCC3c3cc(F)ccc3O[C@@H]3CCOC3)cn12` (single isomer, unassigned) [Example 66]: the IC50 under setting [1] lay within 1000 to 10000 nM. On to `CN(CC(C)(C)F)S(=O)(=O)NC(=O)c1cnc2ccc(N3CCC[C@@H]3c3cc(F)ccc3F)cn12` [Example 42, (R)-6-(2-(2,5-difluorophenyl)pyrrolidin-1-yl)-N-(N-(2-fluoro-2-methylpropyl)-N-methylsulfamoyl)imidazo[1,2-a] pyridine-3-carboxamide], for which the IC50 under setting [2] was not above 50 nM. For `CC(C)(C)S(=O)(=O)NC(=O)c1cnc2ccc(N3C[C@@H](F)C[C@@H]3c3cc(F)ccc3OCCF)cn12` [Example 58, N-(tert-butylsulfonyl)-6-((2R,4S)-4-fluoro-2-(5-fluoro-2-(2-fluoroethoxy)phenyl)pyrrolidin-1-yl)imidazo[1,2-a] pyridine-3-carboxamide], the IC50 under setting [2] is not above 50 nM. Take `O=C(NC[C@H](O)CO)c1cnc2ccc(N3CCC[C@@H]3c3cc(F)ccc3F)cn12` [Example 25, 6-((R)-2-(2,5-difluorophenyl)pyrrolidin-1-yl)-N—((S)-2,3-dihydroxypropyl)imidazo[1,2-a]pyridine-3-carboxamide]: under setting [2], the IC50 fell in the range of 50 to 100 nM. Turning to `CCN(C)S(=O)(=O)NC(=O)c1cnc2ccc(N3CCCC3c3cc(F)ccc3O[C@@H]3CCOC3)cn12` (single isomer, unassigned) [Example 64], under setting [1], the IC50 lay in the range of 1000 to 10000 nM. As for `O=C(c1cnc2ccc(N3CCCC3c3cc(F)ccc3F)cn12)N1CCOCC1` (stereo not shown) [Example 6, (6-(2-(2,5-difluorophenyl)pyrrolidin-1-yl)imidazo[1,2-a]pyridin-3-yl)(morpholino)methanone], the IC50 under setting [1] fell in the range of 1000 to 10000 nM. Regarding `COCCN(C)S(=O)(=O)NC(=O)c1cnc2ccc(N3CCC[C@@H]3c3cc(F)ccc3OC3CCOCC3)cn12` [Example 82, (R)-6-(2-(5-fluoro-2-((tetrahydro-2H-pyran-4-yl)oxy)phenyl)pyrrolidin-1-yl)-N—(N-(2-methoxyethyl)-N-methylsulfamoyl)imidazo[1,2-a]pyridine-3-carboxamide], under setting [2], the IC50 is 50 to 100 nM. As for `CN1CCN(C(=O)c2cnc3ccc(N4CCCC4c4cc(F)ccc4F)cn23)CC1` (stereo not shown) [Example 9, (6-(2-(2,5-difluorophenyl)pyrrolidin-1-yl)imidazo[1,2-a]pyridin-3-yl)(4-methylpiperazin-1-yl)methanone], under setting [1], the IC50 was 1000 to 10000 nM. As for `Cc1nnc(N(C)S(=O)(=O)NC(=O)c2cnc3ccc(N4C[C@@H](F)C[C@@H]4c4cc(F)ccc4OC4CCOCC4)cn23)s1` [Example 98, 6-((2R,4S)-4-fluoro-2-(5-fluoro-2-((tetrahydro-2H-pyran-4-yl)oxy)phenyl)pyrrolidin-1-yl)-N—(N-methyl-N-(5-methyl-1,3,4-thiadiazol-2-yl)sulfamoyl)imidazo[1,2-a]pyridine-3-carboxamide], the half-inhibitory concentration (IC50) under setting [2] fell in the range of 50 to 100 nM.

On to `CCN(C)S(=O)(=O)NC(=O)c1cnc2ccc(N3CCCC3c3cc(F)ccc3O[C@@H]3CCOC3)cn12` (single isomer, unassigned) [Example 63], for which the IC50 under setting [2] is not above 50 nM.

For the origin of these results see patent US9394305B2, “Substituted imidazo[1,2-a]pyridine compounds as tropomyosin receptor kinase a (TrkA) inhibitors” (Dr. Reddy's Laboratories Ltd., priority 2014, dated 2016).
